In US4496551A (priority 1983, dated 1985):

Experiments:
Type in all cases: in vivo
Pyricularia oryzae = experiment: whole plant or invertebrate; conditions: 168 h, read-out: % Control of Rice Blast
[1] = test system: Puccinia recondita var. tritici; experiment: wheat leaf rust control on wheat seedlings; conditions: 100 ppm, sprayed day before inoculation
Method: (§1) Compounds of this invention were dissolved in acetone in an amount equal to 6% of the final volume and then suspended at a concentration of 100 ppm in purified water containing 250 ppm of the surfactant TREM 014 (polyhydric alcohol esters). This suspension was sprayed to the point of run-off on wheat seedlings. The following day, the plants were inoculated with a spore suspension of Puccinia recondita var. tritici, causal agent of wheat leaf rust, and incubated in a saturated humidity chamber at 20° for 24 hours and then in a growth room for an additional 7 days, when disease ratings were made. Treated plants from successful treatments had few or no rust pustules while the untreated plants had numerous rust pustules on each leaf.

Rhizoctonia solani = experiment: rice sheath blight control on rice seedlings; conditions: Rhizoctonia solani, 168 h, 7 days
Method: Several compounds of the previous examples were again dissolved in acetone in an amount equal to 6% of the final volume and then suspended at a concentration of 100 ppm in purified water containing 250 ppm of the surfactant TREM 014 (polyhydric alcohol esters). This suspension was sprayed to the point of run-off on rice seedlings. The following day, the plants were inoculated with a mixture of bran and the mycelium of Rhizoctonia solani, causal agent of sheath blight of rice, and incubated in a growth room for 7 days. Disease ratings were then made. Treated plants from successful treatments had little sheath blight in contrast to untreated plants which were covered with sheath blight.

Phytophthora infestans = experiment: whole plant or invertebrate; conditions: Phytophthora infestans, in Solanum lycopersicum, 168 h, read-out: % Control of Tomato Late Blight
Erysiphe cichoracearum = experiment: cucumber powdery mildew control on cucumber seedlings; conditions: Golovinomyces cichoracearum, 168 h, 7 days
Method: Compounds of the previous examples were again dissolved in acetone in an amount equal to 6% of the final volume and then suspended at a concentration of 100 ppm in purified water containing 250 ppm of the surfactant TREM 014 (polyhydric alcohol esters). This suspension was sprayed to the point of run-off on cucumber seedlings. The following day, the plants were inoculated with a spore suspension of the fungus Erysiphe cichoracearum, causal agent of cucumber powdery mildew, and incubated in a growth room for 7 days. Disease ratings were then made. Treated plants from successful treatments had little or no powdery mildew in contrast to untreated plants which were covered with powdery mildew.

Cercospora arachidicola = experiment: peanut early leafspot control on peanut seedlings; conditions: Mycosphaerella arachidis, 336 h
Method: Compounds of the previous examples were again dissolved in acetone in an amount equal to 6% of the final volume and then suspended at a concentration of 100 ppm in purified water containing 250 ppm of the surfactant TREM 014 (polyhydric alcohol esters). This suspension was sprayed to the point of run-off on peanut seedlings. The following day, the plants were inoculated with a spore suspension of Cercospora arachidicola, causal agent of peanut early leafspot, and incubated in a saturated humidity chamber at 27° for 24 hours and then in a growth room for an additional 14 days, when disease ratings were made. Treated plants from successful treatments had few or no leafspots while the untreated plants had numerous leafspots on each leaf.

Venturia inaequalis = experiment: apple scab control on apple seedlings; conditions: Venturia inaequalis; 100 ppm
Method: as §1, with “apple” for “wheat”, “the fungus Venturia inaequalis,” for “Puccinia recondita var. tritici,”, “apple scab,” for “wheat leaf rust,”, “10-12 days.” for “7 days, when disease ratings were made.”, “apple scab lesions when compared to” for “rust pustules while the”, “which were covered with scab lesions.” for “had numerous rust pustules on each leaf.”

Helminthosporium maydis = experiment: southern corn leaf blight control on corn seedlings; conditions: Bipolaris maydis, 168 h
Method: Compounds of the previous example were again dissolved in acetone in an amount equal to 6% of the final volume and then suspended at a concentration of 100 ppm in purified water containing 250 ppm of the surfactant TREM 014 (polyhydric alcohol esters). This suspension was sprayed to the point of run-off on corn seedlings. The following day, the plants were inoculated with a spore suspension of Helminthosporium maydis, causal agent of southern corn leaf blight, and incubated in a saturated humidity chamber at 20° for 24 hours and then in a growth room for an additional 7 days, when disease ratings were made. Treated plants from successful treatments had few lesions while the untreated plants had numerous lesions on each leaf.

Structure (SMILES) | pest or weed control at 100 ppm (Pyricularia oryzae) [%] | pest or weed control at 100 ppm [1] [%] | pest or weed control at 100 ppm (Rhizoctonia solani) [%] | pest or weed control at 100 ppm (Phytophthora infestans) [%] | pest or weed control at 100 ppm (Erysiphe cichoracearum) [%] | pest or weed control at 100 ppm (Cercospora arachidicola) [%] | pest or weed control at 100 ppm (Venturia inaequalis) [%] | pest or weed control at 100 ppm (Helminthosporium maydis) [%]
C[Si](Cn1ccnc1)(c1ccccc1Cl)c1ccccc1Cl [[bis(2-Chlorophenyl)](1H-imidazol-1-ylmethyl)methylsilane] | 90 | 0 | 40 | 60 | 100 | 100 | 60 | 90
O[Si](Cn1ccnc1)(c1ccc(Cl)cc1)c1ccc(Cl)cc1 [[bis(4-chlorophenyl)]hydroxy(1H-imidazol-1-ylmethyl)silane] | 0 | 80 | 0 | 0 | 100 | 50 | 0 | 0
CC(C)(C)c1ccc([Si](C)(C)Cn2ccnc2)cc1 [[4-(1,1-Dimethylethyl)phenyl](1H-imidazol-1-ylmethyl)dimethylsilane] | 80 | 0 | 0 | 0 | 80 | 0 | 50 | 70
C[Si](Cn1ccnc1)(c1ccccc1)c1ccccc1Cl (stereo not drawn) [(2-Chlorophenyl)(1H-imidazol-1-ylmethyl)methyl(phenyl)silane] | 0 | 0 | 0 | 0 | 100 | 100 | 100 | 0
Clc1ccc([Si](Cn2ccnc2)(c2ccc(Cl)cc2)c2ccc(Cl)cc2)cc1 [tris(4-Chlorophenyl)(1H-imidazol-1-ylmethyl)silane] | 0 | 0 | 0 | 0 | 100 | 0 | 0 | 0
O[Si](Cn1ccnc1)(c1ccc(F)cc1)c1ccc(F)cc1 [bis(4-Fluorophenyl)hydroxy(1H-imidazol-1-ylmethyl)silane] | 60 | 100 | 90 | 0 | 100 | 50 | 0 | 0
C[Si](C)(Cn1ccnc1)c1cccc(Cl)c1 [(3-Chlorophenyl)dimethyl(1H-imidazol-1-ylmethyl)silane] | 0 | 80 | 90 | 0 | 80 | 0 | 60 | 0
C[Si](Cn1ccnc1)(c1ccccc1)c1ccc(-c2ccccc2)cc1 (stereo not drawn) [(1,1'-Biphenyl-4-yl)(1H-imidazol-1-ylmethyl)methyl(phenyl)silane] | 0 | 100 | 0 | 0 | 100 | 80 | 0 | 80
C[Si](C)(Cn1ccnc1)c1cccc(-c2ccccc2)c1 [(1,1'-Biphenyl-3-yl)dimethyl(1H-imidazol-1-ylmethyl)silane] | 80 | 90 | 90 | 0 | 0 | 80 | 90 | 90
C[Si](Cn1ccnc1)(c1ccc(Cl)cc1Cl)c1ccc(Cl)cc1Cl [bis(2,4-Dichlorophenyl)(1H-imidazol-1-ylmethyl)methylsilane] | 0 | 100 | 80 | 0 | 100 | 90 | 40 | 80
C[Si](Cn1ccnc1)(c1ccccc1)c1ccc(Br)cc1 (stereo not drawn) [(4-Bromophenyl)(1H-imidazol-1-ylmethyl)methyl(phenyl)silane] | 0 | 90 | 0 | 0 | 100 | 90 | 30 | 0
C[Si](C)(Cn1ccnc1)c1ccc(S(C)(=O)=O)cc1 [Dimethyl(1H-imidazol-1-ylmethyl)(4-methylsulfonylphenyl)silane] | 100 | 0 | 0 | 0 | 0 | 0 | 80 | 0
COc1cccc([Si](C)(C)Cn2ccnc2)c1OC [(2,3-Dimethoxyphenyl)(1H-imidazol-1-ylmethyl)dimethylsilane] | 0 | 0 | 0 | 0 | 100 | 0 | 0 | 0
CC(C)O[Si](C)(Cn1ccnc1)c1ccccc1 (stereo not drawn) [(1H-Imidazol-1-ylmethyl)methyl(phenyl)(2-propoxy)silane] | 0 | 0 | 0 | 0 | 90 | 0 | 0 | 0
C[Si](C)(Cn1ccnc1)c1ccc(-c2ccc(Br)cc2)cc1 [(4'-Bromo-1,1'-biphenyl-4-yl)dimethyl(1H-imidazol-1-ylmethyl)silane] | 90 | 100 | 90 | 0 | 100 | 90 | 50 | 0
